The text below walks through data of patent US7238779B2, “Acyl CoA:cholesterol acyltransferase (ACAT-2)” (The Regents of the University of California, priority 1998, dated 2007).

The structures appear in SMILES notation.

The assay concerns ACAT-2 protein. Briefly: inhibition of ACAT-2 protein activity. It is filed as biochemical. To be noted: general statement, concentration not given.
In the case of `CCCCCCCCCCC(C)(C)C(=O)Nc1c(OC)cc(OC)cc1OC` [CI-976], the “activity of the ACAT-2 protein is inhibited by the compound” value is given as “inhibited”.

For `CC(C)c1cc(C(C)C)c(CC(=O)NS(=O)(=O)Oc2c(C(C)C)cccc2C(C)C)c(C(C)C)c1` [CI-1011], the “activity of the ACAT-2 protein is inhibited by the compound” value is “inhibited”.

On to `CC(C)c1cccc(C(C)C)c1NC(=O)NCC1(c2ccc(N(C)C)cc2)CCCC1.Cl` [PD 132301-2], for which the “activity of the ACAT-2 protein is inhibited by the compound” value is on record as “inhibited”.

Consider `O=C(O)c1cc[c]([Hg][OH])cc1` [PHMB], for which the “activity of the ACAT-2 protein is inhibited by the compound” value is given as “inhibited”.

In the case of `O=S(=O)(F)Cc1ccccc1` [PMSF], the “activity of the ACAT-2 protein is inhibited by the compound” value is “inhibited”.

For the molecule `CC(=O)[C@H]1CC[C@H]2[C@@H]3CCC4=CC(=O)CC[C@]4(C)[C@H]3CC[C@]12C` [progesterone], the “activity of the ACAT-2 protein is inhibited by the compound” value is recorded as “inhibited”.
